Activity calls are given as the source filed them. The calls are words filed in the database; no cut-off is given here.

Our source for the Activity, inhibition and IC50 values is ChEMBL document CHEMBL4420080, “Inhibitors of sox18 protein activity for treating angiogenesis- and/or lymphangiogenesis-related diseases” (2018).

Data set [1] deals with Danio rerio. As to the kind of experiment: Induction of arterial and venous genes dys-regulation in zebrafish larvae harboring fli1 a:eGFP,-6.5kdrl:mCherry assessed as effect on prox1a gene expression at 1.5 uM dosed starting from 16 hpf and measured at 24 and 48 hpf by qRT-PCR analysis. The format is functional, organism-based.
The test system of data set [2] is Danio rerio. The experiment in a line: Induction of vascular phenotype changes in zebrafish larvae harboring fli1 a:eGFP,-6.5kdrl:mCherry assessed as induction of posterior cardinal vein enlargement with arteriovenous shunts and incomplete trunk circulation at 1.5 uM dosed starting from 16 hpf. The format is functional, organism-based.
The next data set deals with L-type calcium channel (Rattus norvegicus, UniProt P22002+P27732+Q02485). The experiment in a line: Inhibition of rat L-type calcium channel at 10 uM relative to control. In kind it is protein assay.
The target of data set [3] is Transcription factor SOX-17 (Homo sapiens) (UniProt Q9H6I2). The experiment in a line: Inhibition of SOX17 (unknown origin) expressed in African green monkey COS7 cells assessed as reduction in SOX17 transcriptional activity at. In kind it is cell-based.
Data set [4] concerns the target T1, Transcription factor SOX-18 (Mus musculus) (UniProt P43680).
T1 sequence (whole entry): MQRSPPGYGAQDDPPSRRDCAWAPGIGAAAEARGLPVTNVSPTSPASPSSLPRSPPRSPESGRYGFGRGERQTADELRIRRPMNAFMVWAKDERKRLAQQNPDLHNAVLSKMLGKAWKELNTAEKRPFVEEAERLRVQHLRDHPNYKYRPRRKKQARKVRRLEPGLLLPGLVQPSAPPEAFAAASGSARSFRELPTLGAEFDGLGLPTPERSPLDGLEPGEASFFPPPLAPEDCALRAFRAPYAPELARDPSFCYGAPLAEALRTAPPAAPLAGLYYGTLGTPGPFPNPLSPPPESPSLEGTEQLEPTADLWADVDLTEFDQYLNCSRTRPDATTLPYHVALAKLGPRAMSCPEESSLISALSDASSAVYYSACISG
The experiment in a line: Competitive binding affinity to full-length mouse SOX18 expressed in Sf9 cells assessed as reduction in SOX1 8- DNA binding using FAM-labelled Prox1 -DNA element at 1 to 1000 uM incubated for 5 mins in dark at room temperature, 10 mins at 37 degC and 30 mins at room temperature by fluorescence polarization assay.

Data set [5] deals with Muscarinic acetylcholine receptor M2 (Homo sapiens) (UniProt P08172). The experiment in a line: Inhibition of human muscarinic M2 receptor at 10 uM relative to control.
In data set [6] the test system is Danio rerio. As to the kind of experiment: Induction of arterial and venous genes dys-regulation in zebrafish larvae harboring fli1 a:eGFP,-6.5kdrl:mCherry assessed as effect on hey2 gene expression at 1.5 uM dosed starting from 16 hpf and measured at 24 and 48 hpf by qRT-PCR analysis. In kind it is functional, organism-based.
The target in data set [7] is Transcription factor SOX-18 (Homo sapiens, UniProt P35713). As to the kind of experiment: Inhibition of SOX18 in HUVEC assessed as reduction of SOX18-ESR1 interactions incubated for 45 mins by Alpha-screen assay. The format is cell-based.
A further data set has as its system 4T1.2. As to the kind of experiment: Inhibition of tumor induced vascular response in mouse 4T1.2 cells implanted BALB/c mouse assessed as reduction in blood vessel coverage at 25 mg/kg/day for 10 days by bright field microscopy. In kind it is functional, organism-based.

Chain of Transcription factor SOX-17 (Homo sapiens) (Q9H6I2 whole entry): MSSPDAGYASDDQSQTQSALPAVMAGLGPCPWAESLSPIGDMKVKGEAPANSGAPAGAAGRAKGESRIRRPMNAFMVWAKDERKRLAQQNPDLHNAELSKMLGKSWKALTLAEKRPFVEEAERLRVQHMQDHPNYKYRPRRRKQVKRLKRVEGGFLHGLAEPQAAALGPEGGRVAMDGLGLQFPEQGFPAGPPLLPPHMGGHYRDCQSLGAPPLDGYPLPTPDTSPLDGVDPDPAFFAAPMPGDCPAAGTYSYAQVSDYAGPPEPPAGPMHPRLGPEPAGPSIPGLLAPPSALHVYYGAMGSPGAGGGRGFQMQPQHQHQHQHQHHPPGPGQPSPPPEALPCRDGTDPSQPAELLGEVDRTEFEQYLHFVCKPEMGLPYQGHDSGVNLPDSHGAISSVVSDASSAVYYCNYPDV
Chain of Muscarinic acetylcholine receptor M2 (Homo sapiens) (P08172 whole entry): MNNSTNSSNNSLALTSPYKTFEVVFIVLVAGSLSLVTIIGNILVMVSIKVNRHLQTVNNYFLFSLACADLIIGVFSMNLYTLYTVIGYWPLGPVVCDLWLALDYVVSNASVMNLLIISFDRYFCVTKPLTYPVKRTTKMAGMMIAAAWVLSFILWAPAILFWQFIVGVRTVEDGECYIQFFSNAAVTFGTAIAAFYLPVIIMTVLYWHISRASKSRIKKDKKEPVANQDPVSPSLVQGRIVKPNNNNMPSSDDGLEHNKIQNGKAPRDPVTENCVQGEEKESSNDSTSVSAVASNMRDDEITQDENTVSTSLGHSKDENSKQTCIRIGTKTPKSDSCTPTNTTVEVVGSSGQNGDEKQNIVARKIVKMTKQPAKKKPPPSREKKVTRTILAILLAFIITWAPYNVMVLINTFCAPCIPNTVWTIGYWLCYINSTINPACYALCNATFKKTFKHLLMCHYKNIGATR
Chain of Transcription factor SOX-18 (P35713 whole entry): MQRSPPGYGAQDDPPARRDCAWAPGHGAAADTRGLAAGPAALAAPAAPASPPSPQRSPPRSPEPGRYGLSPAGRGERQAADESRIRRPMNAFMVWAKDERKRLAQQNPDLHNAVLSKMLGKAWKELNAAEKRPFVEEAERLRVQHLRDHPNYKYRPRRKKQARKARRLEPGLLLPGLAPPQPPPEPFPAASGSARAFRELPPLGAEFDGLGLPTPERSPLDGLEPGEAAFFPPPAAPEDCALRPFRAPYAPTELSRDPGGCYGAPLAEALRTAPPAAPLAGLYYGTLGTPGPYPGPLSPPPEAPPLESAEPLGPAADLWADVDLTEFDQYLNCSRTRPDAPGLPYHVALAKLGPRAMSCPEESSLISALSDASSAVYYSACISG

With `O=C(O)c1c(O)cccc1CCc1ccc2ccccc2c1`, the outcome (in the data set with Danio rerio [1]; in the data set with Danio rerio [2]; in [4]; in the data set on Danio rerio [6]) was Active. Besides, the inhibition at 10 µM at L-type calcium channel is -8%. Besides, the inhibition entry in data set [3] is “inactive”. Besides, in [5], the inhibition was 13%. Also, the IC50 entry in [7] is reported as “Not Active”. The inhibition result with 4T1.2 is “Active”.
